Assays:
PI3K = experiment: Immunoblot of phospho-Y199 PI3K in T. gondii-infected CHO cells; format: cell-based, Chinese Hamster; conditions: lysates at 2 h
Procedure: Membranes were probed with antibodies against Src, phospho-Y416 Src, Akt, phospho-S473 Akt, PTEN, phospho-[…] PTEN, PI3K, phospho-Y458/Y199 PI3K, ULK1, EGFR, HA tag (all from Cell Signaling, Danvers, MA), phospho-Y240 PTEN (Sigma) and Actin (Santa Cruz Biotechnologies) followed by incubation with secondary antibodies (Cell Signaling and Santa Cruz Biotechnologies). Three independent experiments were performed.

EGS T. gondii cysts = experiment: Parasite cysts in CHO cells infected with EGS T. gondii; format: cell-based, Toxoplasma gondii; conditions: Saracatinib 1 μM, 4 days
From the text: We infected CHO cells with EGS T. gondii, a strain of the parasite that spontaneously form cysts in vitro.

LAMP1 = experiment: Immunofluorescence of LAMP1 accumulation around parasites; format: cell-based; conditions: CHO cells and brain endothelial cells, 1 μM, 7 hours
Procedure: FIGS. 3(A-L) illustrate images and graphs showing T. gondii killing induced by Src inhibition is mediated by autophagy. (A-C) CHO cells and primary brain endothelial cells expressing WT or DN EGFR were infected with RFP-T. gondii and treated with Saracatinib 1 μM for 5 hours before staining with an anti-LC3 antibody. Accumulation of LC3 around the parasites was assessed by confocal microscopy. Scale bar, 10 μm. (D-F) CHO cells and primary brain endothelial cells expressing WT or DN EGFR were infected with RFP-T. gondii and treated with Saracatinib 1 μM for 7 hours before staining with anti-LAMP1 antibody. Accumulation of LAMP1 around parasites was assessed as above. G-I) CHO cells and primary brain endothelial cells expressing WT or DN EGFR were transfected with control siRNA or ULK1 siRNA. Relative density of ULK1 was normalized to total Actin followed by normalization relative to Ctr siRNA. […] Cells were treated with or without Saracatinib and infected with RH T. gondii. Monolayers were examined at 24 h. […]
Mammalian cells were infected with RFP-T. gondii (RH) and fixed with 4% paraformaldehyde. […] LC3 and LAMP1 were evaluated for accumulation at 5- and 7 hours post-infection, respectively. […] Parasites were evaluated blindly in multiple random fields of view and 100 parasites were examined per group. […]

ME49 T. gondii [1] = experiment: Ocular and cerebral toxoplasmosis in Becn1+/+ and Becn1+/- mice; format: in vivo; conditions: 10 mg kg-1, 2 weeks
CHO cells = experiment: MTT assay of potential cell toxicity, CHO cells; format: cell-based, Chinese Hamster; conditions: 1 μM, 24 hrs
Procedure: FIG. 9 illustrates graphs showing the assessment of potential cell toxicity of Saracatinib. CHO cells and retinal pigment epithelial cells (RPE) were treated with various concentrations of Saracatinib (1 nM-1000 μM) followed by MTT assay 24 hrs. after incubation with Saracatinib. The data are pooled from duplicate or triplicate independent samples obtained in 3 different experiments. […] Data are shown as mean±SEM. Significance was determined by comparing all groups to the control using one-way ANOVA with Holm-Sidak multiple comparison test (*p<0.05). (PDF)

Lek and Fyn in T cells = conditions: cited from earlier work
[2] = system: retinal pigment epithelial cells (RPE); experiment: MTT assay of potential cell toxicity, RPE cells; format: cell-based, human; conditions: 1 μM, 24 hrs
Procedure: Data are shown as mean±SEM. […] Three independent experiments were performed.

PTEN = experiment: Confocal microscopy of PTEN and GRA7 around parasites in CHO cells; format: cell-based, Chinese Hamster; conditions: RFP-T. gondii
Procedure: Mammalian cells were infected with RFP-T. gondii (RH) and fixed with 4% paraformaldehyde. Cells were stained with antibodies against LC3 (MBL International, Woburn, MA), LAMP1 (DSHB, Iowa City, IA), or GRA7 (gift from John Boothroyd, Stanford University, Stanford, CA) followed by a fluorescently conjugated secondary antibodies (Jackson ImmunoResearch Laboratories, West Grove, PA). LC3 and LAMP1 were evaluated for accumulation at 5- and 7 hours post-infection, respectively. Cells were stained with antibodies against PTEN (Santa Cruz Biotechnology, Dallas, TX) or anti-phospho S473 Akt (Novus, Centennial, CO). Frozen brain sections were stained with antibodies against PTEN (Novus, Centennial, CO), phospho S473 Akt, SAG-1 (Invitrogen, Waltham, MA) or T. gondii (Biogenex, Fremont, CA). Parasites were evaluated blindly in multiple random fields of view and 100 parasites were examined per group. In-out assays were performed as described using RFP-T gondii, anti-SAG-1 antibody (Invitrogen, Waltham, MA) and an Alexa Fluor 488-conjugated secondary antibody. Olympus FV1200 confocal microscope (Evident/Olympus, Waltham, MA) equipped with UPlanSApa 60× and 100× 1.45NA objectives was used to evaluate the slides.

ME49 T. gondii [3] = experiment: Ocular and cerebral toxoplasmosis in Dexamethasone-treated mice; format: in vivo, C57BL/6 mice; conditions: 10 mg kg-1 twice per day, 2 weeks, vs vehicle
From the text: Female mice between the ages of 6 to 8 weeks old were infected with 10 cysts of the ME49 T. gondii for four weeks.

T. gondii = experiment: In vitro infection of mammalian cells with T. gondii tachyzoites, counted by light microscopy; format: cell-based, Toxoplasma gondii
Procedure: Chinese Hamster Ovary (CHO; a gift from Cathleen Carlin, Case Western Reserve University), human retinal pigment epithelial (RPE) cells (ARPE-19; American Type Culture Collection, ATCC, Manassas, VA), and mouse endothelial […]) transduced with Src shRNA or control encoding lentiviral vectors were cultured in complete media. Mouse brain endothelial cells expressing WT or DN EGFR were isolated as described. Endothelial cells were cultured in medium containing Endothelial Cell Growth Supplement (ECGS; Sigma-Aldrich, St Louis, MO). Mammalian cells were infected with tachyzoites of the RH or PTG stains of T. gondii; RH strain was used unless otherwise indicated. Cells were fixed at 2 hours or 24 hours followed by staining using Hema 3 Manual Staining System (Fisherbrand, Hampton, NH). At least 100 to 200 cells per monolayer were counted by examining a minimum of 5 random areas per monolayer. The percentage of infected cells, tachyzoites and vacuoles per 100 cells, and tachyzoites per vacuole were counted using light microscopy. Three independent experiments were performed. Saracatinib, Gefitinib (LC Laboratories, Woburn, MA) and lysosomal inhibitors leupeptin and pepstatin (10 μM; Millipore Sigma, Burlington, MA) were used in specified experiments. Each cell monolayer was generated and infected independently.

[4] = CHO cells transfected with CA Akt, 1 μM, 24 h
[5] = CHO cells transfected with WT Akt, 1 μM, 24 h
[6] = EGFR+ CHO cells, RH T. gondii, indicated concentrations, 24 h

CN1CCN(CCOc2cc(OC3CCOCC3)c3c(Nc4c(Cl)ccc5c4OCO5)ncnc3c2)CC1 [Saracatinib, N-(5-chloro-1,3-benzodioxol-4-yl)-7-(2-(4-methylpiperazin-1-yl)ethoxy)-5-(tetrahydro-2H-pyran-4-yloxy)quinazolin-4-amine]
Y199 phosphorylation of PI3K (PI3K): inhibited | morphology of bradyzoites in remaining cysts (EGS T. gondii cysts): altered morphology | reduction in the number of cysts (EGS T. gondii cysts): ~60% | accumulation of LAMP1 around intracellular parasites (LAMP1): accumulation of the lysosomal marker, LAMP1, was observed | ocular and cerebral histopathology (ME49 T. gondii [1]; Becn 1+/+ mice): improvement | parasite load (ME49 T. gondii [1]; Becn 1+/+ mice): improvement | response of histopathology and parasite loads (ME49 T. gondii [1]; autophagy-deficient Becn 1+/- mice): did not respond | cell toxicity (MTT) (CHO cells): non-toxic | activity of Lek and Fyn in T cells (Lek and Fyn in T cells): did not inhibit | T cell expansion and IFN-γ production following antigenic stimulation (Lek and Fyn in T cells; low doses, previously primed T cells, in vitro and in vivo): increased T cell expansion and IFN-γ production | cell toxicity (MTT) [2]: non-toxic | association of PTEN to the PVM (PTEN): co-expression of PTEN and GRA7 | histopathology in the eye and brain (ME49 T. gondii [3]): significantly reduced | parasite load in the eye and brain (ME49 T. gondii [3]): significantly reduced | toxoplasmacidal activity (T. gondii; 0.3 μM): significantly reduced | toxoplasmacidal activity (T. gondii; 1 μM, infected host cells): kills T. gondii | toxoplasmacidal activity (T. gondii; CHO cells infected with type I (RH) or Type II (PTG) strains, 1 μM, 2 h and 24 h): toxoplasmacidal activity | effects on infected cells and tachyzoites per 100 cells compared with Gefitinib (T. gondii; CHO cells stably transfected to express EGFR, 24 h): more striking than the effects of Gefitinib | number of tachyzoites per 100 cells (T. gondii; [4]): no reduction | percentage of infection (T. gondii; [4]): no reduction | number of tachyzoites per 100 cells (T. gondii; [5]): reduced | percentage of infected cells (T. gondii; [5]): reduced | parasite replication (tachyzoites per vacuole) (T. gondii; CHO cells, 1 μM, 24 hours): did not affect | killing of T. gondii in cells made deficient in PTEN (T. gondii; CHO cells, PTEN siRNA, 24 h): no longer able to kill T. gondii | percentage of infected cells (T. gondii; [6]): dose-dependent significant decrease | tachyzoites per 100 cells (T. gondii; [6]): dose-dependent significant decrease | anti-T. gondii activity in ULK1-deficient cells (T. gondii; ULK1 siRNA, CHO and brain endothelial cells, 24 h): unable to exhibit anti-T. gondii activity | anti-T. gondii activity in presence of Leupeptin and Pepstatin A (T. gondii; lysosomal inhibitors 10 μM added post-infection): ablated | toxoplasmacidal activity in cells made deficient in Src (T. gondii; mHEVc cells transduced with Src shRNA, 1 μM): no toxoplasmacidal activity was detected

From patent US20250312349A1, “COMPOSITION AND METHODS OF TREATING INTRACELLULAR PATHOGEN INFECTION” (UNIVERSITY HOSPITALS CLEVELAND MEDICAL CENTER, priority 2024, published 2025)
